Converted amounts (≈) assume the structure as drawn. Where two headings read alike, the source gives them in different places.
Experiments:
Escherichia coli EC14 = experiment: Minimum inhibitory concentration, standard agar dilution method; format: cell-based
Description: (§1) The method of this invention is useful in treating infections caused by a variety of microorganisms pathogenic to man and animals. […] The concentrations were obtained by the standard agar dilution method.

Escherichia coli N10 = experiment: as above; format: cell-based
Description: as §1

Escherichia coli TEM = experiment: as above; format: cell-based
Description: as §1

[1] = system: Haemophilus influenzae 76; experiment: as above; format: cell-based
Description: as §1

[2] = system: Haemophilus influenzae C.L.; experiment: as above; format: cell-based
Description: as §1

[3] = system: Klebsiella pneumoniae KAE; experiment: as above; format: cell-based; conditions: for MIC: read-out: Minimum Inhibitory Concentration
Description: as §1

[4] = system: Klebsiella pneumoniae X26; experiment: as above; format: cell-based
Description: as §1

[5] = system: Klebsiella pneumoniae X68; experiment: as above; format: cell-based
Description: as §1

[6] = system: Staphylococcus aureus S13E; experiment: as above; format: cell-based; conditions: for Minimum Inhibitory Concentration: Staphylococcus aureus S13E, agar dilution; for MIC: Staphylococcus aureus, S13E, read-out: Minimum Inhibitory Concentration
Description: as §1

[7] = system: Staphylococcus aureus V41; experiment: as above; format: cell-based
Description: as §1

[8] = system: Staphylococcus aureus X1.1; experiment: as above; format: cell-based
Description: as §1

[9] = system: Staphylococcus aureus X400; experiment: as above; format: cell-based
Description: as §1

[10] = system: Staphylococcus epidermidis 222; experiment: as above; format: cell-based
Description: as §1

[11] = system: Staphylococcus epidermidis Epil; experiment: as above; format: cell-based
Description: as §1

[12] = system: Streptococcus pneumoniae PARK I; experiment: as above; format: cell-based
Description: as §1

[13] = system: Streptococcus pyogenes C203; experiment: as above; format: cell-based
Description: as §1

[14] = system: Streptococcus sp. group D 2041; experiment: as above; format: cell-based; conditions: for MIC: read-out: Minimum Inhibitory Concentration
Description: as §1

[15] = system: Streptococcus sp. group D X66; experiment: as above; format: cell-based; conditions: for MIC: read-out: Minimum Inhibitory Concentration
Description: as §1

[16] = Peroral bioavailability in mice (oral vs subcutaneous dosage); format: in vivo, mice (Cox Male Standard Mice, Lai:COX (Standard) BR); conditions: 20 mg/kg; for Oral Bioavailability % BA (AUC): area under plasma curves after oral vs subcutaneous dosage; for Oral Bioavailability % BA (URINE): urinary excretion after oral vs subcutaneous dosage
Description: Cox Male Standard Mice, Lai:COX (Standard) BR were housed overnight in a wire-bottom cage with free access to water and liquid diet. The result was a gastro-intestinal tract free of solids, yet without the nutritional shock and coprophagy that often accompanies overnight starvation of rodents. After dosing, the mice were housed individually in ventilated wide-mouth jars containing a layer of buffer beneath an elevated wire screen floor. At intervals after dosing, mice were removed from the jars and heparinized blood, stomach, and small intestine were removed from the animals. The urinary bladder was removed and combined with the urine collected in the buffer in the bottom of the jars. Urine, washings from the stomach and small intestine, and plasma prepared from blood samples were assayed for antibiotic activity. The test procedure used is a modification of the test procedure described by W. E. Wright, et al., J. Antibiotics, 32:1155 (1979).
Dose solutions were prepared in saline at 2 mg/ml for subcutaneous or oral administration. In all cases the compounds were administered to the mice at 20 mg/kg on an equal weight basis.
The biological activity of the samples was determined by a conventional agar well procedure using Bacillus subtilis ATCC 6633 as the test organism.
Peroral bioavailability (BA) of the test compounds in mice can be determined either by comparison of the area under the plasma curves (AUC) after oral or subcutaneous dosage, or by comparison of the urinary excretion of the dose after oral and subcutaneous dosage. Calculations of BA by either method are made with the following formulae: [formula]

[17] = Oral bioavailability in dogs; format: in vivo; conditions: female mongrel dogs
[18] = Klebsiella pneumoniae KAE, agar dilution
[19] = Staphylococcus aureus V41, agar dilution
[20] = Staphylococcus aureus X400, agar dilution
[21] = Streptococcus sp. group D 2041, agar dilution
[22] = Streptococcus sp. group D X66, agar dilution
[23] = Staphylococcus aureus V41, agar dilution, read-out: Minimum Inhibitory Concentration
[24] = Staphylococcus aureus X400, agar dilution, read-out: Minimum Inhibitory Concentration

SMILES | Minimum Inhibitory Concentration (Escherichia coli EC14) [µg/mL] | Minimum Inhibitory Concentration (Escherichia coli N10) [µg/mL] | Minimum Inhibitory Concentration (Escherichia coli TEM) [µg/mL] | Minimum Inhibitory Concentration [1] [µg/mL] | Minimum Inhibitory Concentration [2] [µg/mL] | Minimum Inhibitory Concentration [3, 18] [µg/mL] | Minimum Inhibitory Concentration [4] [µg/mL] | Minimum Inhibitory Concentration [5] [µg/mL] | Minimum Inhibitory Concentration [6] [µg/mL] | Minimum Inhibitory Concentration [7, 19] [µg/mL] | Minimum Inhibitory Concentration [8] [µg/mL] | Minimum Inhibitory Concentration [9, 20] [µg/mL] | Minimum Inhibitory Concentration [10] [µg/mL] | Minimum Inhibitory Concentration [11] [µg/mL] | Minimum Inhibitory Concentration [12] [µg/mL] | Minimum Inhibitory Concentration [13] [µg/mL] | Minimum Inhibitory Concentration [14, 21] [µg/mL] | Minimum Inhibitory Concentration [15, 22] [µg/mL] | MIC (Escherichia coli EC14) [mg/L] | MIC (Escherichia coli N10) [mg/L] | other results
Nc1nc(CC(=O)N[C@@H]2C(=O)N3C(C(=O)O)=C(Cl)CS[C@H]23)ns1 [Compound 1] | 8 | 32 | 16 | 4 | 4 | > 128 | 4 | 8 | 64 | 128 | 4 | > 128 | 4 | 16 | 2 | 1 | 128 | > 128 |  |  | 
O=C(Cc1csc(Cl)n1)N[C@@H]1C(=O)N2C(C(=O)O)=C(Cl)CS[C@H]12 [Compound 3, 7β-[2-(2-Chlorothiazol-4-yl)acetamido]-3-chloro-3-cephem-4-carboxylic acid] |  |  |  |  |  |  |  |  |  |  |  |  |  |  |  |  |  |  | 16 (≈ 40.6 µM) | 32 (≈ 81.2 µM) | Oral Bioavailability % BA (AUC) [16]: 66%; Oral Bioavailability % BA (URINE) [16]: 56%; MIC (Escherichia coli TEM): 16 mg/L (≈ 40.6 µM); MIC [1]: 2 mg/L (≈ 5.07 µM); MIC [2]: 2 mg/L (≈ 5.07 µM); MIC [3, 18]: 128 mg/L (≈ 325 µM); MIC [4]: 4 mg/L (≈ 10.1 µM); MIC [5]: 8 mg/L (≈ 20.3 µM); MIC [6]: 64 mg/L (≈ 162 µM); MIC [7, 23]: 64 mg/L (≈ 162 µM); MIC [8]: 1 mg/L (≈ 2.54 µM); MIC [9, 24]: > 128 mg/L; MIC [10]: 2 mg/L (≈ 5.07 µM); MIC [11]: 8 mg/L (≈ 20.3 µM); MIC [12]: 0.5 mg/L (≈ 1.27 µM); MIC [13]: 0.25 mg/L (≈ 0.634 µM); MIC [14, 21]: 64 mg/L (≈ 162 µM); MIC [15, 22]: 128 mg/L (≈ 325 µM)
Cc1nc(CC(=O)N[C@@H]2C(=O)N3C(C(=O)O)=C(Cl)CS[C@H]23)cs1 [Compound 4, 7β-[2-(2-Methylthiazol-4-yl)acetamido]-3-chloro-3-cephem-4-carboxylic acid] |  |  |  |  |  |  |  |  |  |  |  |  |  |  |  |  |  |  | 16 (≈ 42.8 µM) | 32 (≈ 85.6 µM) | Oral Bioavailability % BA (AUC) [16]: 57%; Oral Bioavailability % BA (URINE) [16]: 66%; MIC (Escherichia coli TEM): 16 mg/L (≈ 42.8 µM); MIC [1]: 1 mg/L (≈ 2.67 µM); MIC [2]: 2 mg/L (≈ 5.35 µM); MIC ([3]; Klebsiella pneumoniae): > 128 mg/L; MIC [4]: 2 mg/L (≈ 5.35 µM); MIC [5]: 8 mg/L (≈ 21.4 µM); MIC [6]: 128 mg/L (≈ 342 µM); MIC ([7]; Staphylococcus aureus, V41, read-out: Minimum Inhibitory Concentration): 128 mg/L (≈ 342 µM); MIC [8]: 1 mg/L (≈ 2.67 µM); MIC ([9]; Staphylococcus aureus, X400, read-out: Minimum Inhibitory Concentration): > 128 mg/L; MIC [10]: 2 mg/L (≈ 5.35 µM); MIC [11]: 8 mg/L (≈ 21.4 µM); MIC [12]: 1 mg/L (≈ 2.67 µM); MIC [13]: 0.25 mg/L (≈ 0.669 µM); MIC ([14]; Streptococcus): 128 mg/L (≈ 342 µM); MIC ([15]; Streptococcus): > 128 mg/L
O=C(Cc1csc(-c2ccccc2)n1)N[C@@H]1C(=O)N2C(C(=O)O)=C(Cl)CS[C@H]12 [Compound 5, 7β-[2-(2-Phenylthiazol-4-yl)acetamido]-3-chloro-3-cephem-4-carboxylic acid] |  |  |  |  |  |  |  |  |  |  |  |  |  |  |  |  |  |  | > 128 | > 128 | MIC (Escherichia coli TEM): > 128 mg/L; MIC [1]: 0.5 mg/L (≈ 1.15 µM); MIC [2]: 4 mg/L (≈ 9.18 µM); MIC [3, 18]: > 128 mg/L; MIC [4]: 8 mg/L (≈ 18.4 µM); MIC [5]: > 128 mg/L; MIC [6]: 16 mg/L (≈ 36.7 µM); MIC [7, 23]: 32 mg/L (≈ 73.4 µM); MIC [8]: 0.25 mg/L (≈ 0.574 µM); MIC [9, 24]: 64 mg/L (≈ 147 µM); MIC [10]: 0.5 mg/L (≈ 1.15 µM); MIC [11]: 4 mg/L (≈ 9.18 µM); MIC [12]: 0.125 mg/L (≈ 0.287 µM); MIC [13]: 0.06 mg/L (≈ 0.138 µM); MIC [14, 21]: 16 mg/L (≈ 36.7 µM); MIC [15, 22]: 64 mg/L (≈ 147 µM)
O=C(Cn1cnnn1)N[C@@H]1C(=O)N2C(C(=O)O)=C(Cl)CS[C@H]12 [Compound 6] | 16 | 32 | 32 | 8 | 16 | > 128 | 32 | 32 | 32 | 32 | 2 | > 128 | 4 | 16 | 0.5 | 0.5 | 64 | 64 |  |  | 
N#Cc1ncn(CC(=O)N[C@@H]2C(=O)N3C(C(=O)O)=C(Cl)CS[C@H]23)n1 [Compound 7] | 32 | 64 | 64 | 2 | 2 | > 128 | 32 | 64 | 128 | 128 | 2 | > 128 | 4 | 8 | 0.5 | 0.25 | 64 | 128 |  |  | 
CC1(C)S[C@@H]2[C@H](NC(=O)COc3ccccc3)C(=O)N2[C@H]1C(=O)O [Penicillin V] |  |  |  |  |  |  |  |  |  |  |  |  |  |  |  |  |  |  |  |  | bioavailability ([17]; dog, urine recovery with time following intravenous and oral administration, read-out: bioavailability (percent of dose recovered in the urine)): 21%; oral bioavailability (area under the curves) ([17]; serum antibacterial levels with time following intravenous and oral administration): 11%

Source: patent publication US4683227A, “Antibiotic derivatives of 7β-[2-(thiazol-4-yl)acetamide]-3-chloro-3-cephem-4-carboxylic acids and compositions and method of use thereof” (Eli Lilly and Company, priority 1985, dated 1987)
